Patent publication US11702399B2, “Quinazolinone derivative, preparation method therefor, pharmaceutical composition, and applications” (KANGPU BIOPHARMACEUTICALS, LTD., priority 2016, dated 2023)
pIC50: −log10 of the molar value. Read-outs that look alike come from different tables or passages of the source.

Columns and labels:
Assay type in all cases: cell-based
[1] = tested on: MM.1S cells (myeloma cells); assay: CTG cell proliferation, MM.1S; details: Homo sapiens, MM1.S, CellTiter-Glo, 72-120 hours, read-out: IC50 value for MM.1S Inhibition
From the text: (§1) Efficacy Example 2: CTG Cell Proliferation Experimental Method
(§2) MM.1S cells (myeloma cells) (ATCC, catalog number CRL-2974), DOHH2 cells (mantle cell lymphoma cells) (DSMZ, catalog number ACC-47), NCI-H929 cells (myeloma cells) (ATCC, catalog number CRL-9068), or WSU-DLCL-2 cells (diffuse large B cell lymphoma cells) (DSMZ, catalog number ACC-575), Namalwa.CSN/70 cells (non-Hodgkin's lymphoma cells (DSMZ, catalog number ACC-70) was inoculated as (1.8-15)×10^3 per well in white wall, transparent bottom 96-well plate containing specific media (Corning, catalog number CLS3903), which was cultured in 37° C., 5% CO2 incubator for 24 hours. Compounds were formulated in DMSO (Sigma, Cat. No. 276855) as 150 mM stock, which was diluted to the required concentration (DMSO final concentration is 0.2%) in culture medium and added to each well, 2 wells/concentration. The plate was incubated in 37° C., 5% CO2 incubator for 72-120 hours. Afterwards, 100 μl of CellTiter-Glo® cell activity assay reagent (Promega, Cat. No. G7570) was added to each well, which was mixed on a plate shaker for 10 minutes to induce cell lysis. The 96-well plate was allowed to stand at room temperature for 10 minutes to stabilize the luminescence signal. A white base film was pasted on the bottom of the plate and the EnSpire was used to read the plate. Data processing was performed with XLfit software to obtain IC50 values.

TNF-α = TNF-α activity inhibition assay (LPS-stimulated hPBMC, TNF-α ELISA); details: Homo sapiens, 18 h
Method: Efficacy Example 1: TNF-α Activity Inhibition Assay
Heat Inactivated FBS: Invitrogen, Cat #10100147
DMSO: Dimethyl sulphoxide, Sigma, Cat #D8418
CTL-Anti-Aggregate Wash 20×: CTL, Cat #CTL-AA-005
Human TNF ELISA Set: BD, Cat #555212
PBMC Recovery and Cell Plating Steps
1) Agitation was performed continuously in a 37° C. water bath to rapidly thaw cells.
2) The cells were gently added to a 15 ml centrifuge tube, to which was then added 10 ml of fresh, prewarmed recovery medium gently and then centrifugation was performed at 1000 rpm for 10 min.
3) The supernatant medium was discarded and resuspension was performed with 10 ml of fresh, prewarmed RPMI 1640 complete medium.
1) The total number of cells needed for the experiment was calculated and adjusted to the appropriate cell concentration per ml. 100 ul and 10^5 cells per well.
2) The cell suspension was diluted with appropriate volume of cell culture medium.
3) The cell suspension was added to a disposable sterile sample well.
4) 100 ul of cell suspension was added to each well of a 96-well plate.
5) The plate was incubated in a 37° C., 5% CO2 incubator for 2 hours.
Compound Preparation Step
1. LPS: The 1 mg/mL stock solution was diluted with water, aliquoted, and stored at −80° C. Prior to each test, the working solution of LPS was diluted from the stock solution with serum-free RPMI 1640 medium.
20 mM stock solution was dissolved in DMSO and the compound was checked for solubility, aliquoted, and stored at −80° C.
8× compound gradient preparation: […]
A series of compound concentration gradient was diluted with DMSO: 10 mM, 2 mM, 0.4 mM, 80 uM, 16 uM, 3.2 uM, 0.64 uM, 0.128 uM were obtained and then the compounds were diluted 125-fold with serum-free RPMI 1640 medium to the final 8×. The final concentration of DMSO in cell culture was 0.1%.
Compound Processing Experimental Procedures and Collection of Supernatants
1. Cell Plating: Fresh cells were plated in 96-well cell culture plates according to the procedure above, 100 ul and 10^5 cells per well, and then incubated in a 37° C., 5% CO2 incubator for 2 hours.
2. Compound Preparation: Before test, compounds were added to the plates according to the above description. A dose of compound in 8× concentration was prepared with serum-free RPMI 1640 medium and all gradients of solution were added to the compound plate.
3. Compound addition: 16.7 ul of compound solution in working concentration was added to each well of the cell culture plate. The plate was incubated in a 37° C., 5% CO2 incubator for 1 hour.
4. 16.7 ul of 8×LPS per well (final concentration of LPS is EC80, the amount of each PBMC needed to be determined) was added. The plate was incubated for 18 hours in 37° C., 5% CO2 incubator.
5. 80 ul of supernatant per well was collected and then subjected to TNF-α ELISA assay. The collected supernatant can be stored at −80° C. The supernatant needed to be diluted in various ratios to ensure that the experimental dose would not exceed the linear range of the TNF-α standard curve, depending on the amount of TNF-α released in different donors. Typically, 20-100 ul of supernatant was diluted to 200 ul and then used for ELISA experiments.
The TNF-α ELISA test procedure were referred to the BD human TNF-α ELISA kit experimental procedure.
Four compounds per plate. 5-fold dilution was performed, starting from 10 uM, by 8 gradients, and parallel wells were made. A total of 16 compounds were tested.
The TNF-α standard was added to each plate. (1st well, starting from 500 pg/ml, 2-fold dilution, 7 gradients)
ZPE (0% inhibition) used 15 pg/ml LPS+0.1% DMSO, while HPE (100% inhibition) used only 0.1% DMSO.
The inhibition rate statistics were calculated. The inhibition rate (%)=[1−[…]]*100%. IC50 was used to evaluate the concentration of the test compound (nM) at 50% inhibition.

[2] = tested on: Namalwa.CSN/70 cells (non-Hodgkin's lymphoma cells); assay: CTG cell proliferation, Namalwa.CSN/70; details: Table 2 batch; CellTiter-Glo, 72-120 hours; read-out: IC50 value for Namalwa. CSN/70 Inhibition
From the text: as §1, §2

[3] = tested on: WSU-DLCL-2 cells (diffuse large B cell lymphoma cells); assay: CTG cell proliferation, WSU-DLCL-2; details: Homo sapiens, WSUDLCL2; Table 2 batch; CellTiter-Glo, 72-120 hours; read-out: IC50 value for WSU-DLCL2 Inhibition
From the text: as §1, §2

[4] = tested on: NCI-H929 cells (myeloma cells); assay: CTG cell proliferation, NCI-H929; details: Homo sapiens, Table 2 batch, CellTiter-Glo, 72-120 hours, read-out: IC50 value for NCI-H929 Inhibition
From the text: as §1, §2

[5] = tested on: DOHH2 cells (mantle cell lymphoma cells); assay: CTG cell proliferation, DOHH2; details: Homo sapiens, DOHH-2; Table 2 batch; CellTiter-Glo, 72-120 hours; read-out: IC50 value for DOHH2 Inhibition
From the text: as §1, §2

Structure (SMILES) | pIC50 (TNF-α; Table 1-1 experiment) | pIC50 ([1]; Table 3 batch) | also measured
Cc1nc2cc(F)cc(N)c2c(=O)n1[C@H]1CCC(=O)NC1=O [Compound K102] | 8.14 | – | pIC50 ([1]; Table 4 batch): 6.98
Cc1nc2cc(F)cc(O)c2c(=O)n1C1CCC(=O)NC1=O (stereo not shown) [Compound K631] | – | 6.02 | –
Cc1nc2cc(F)cc(N)c2c(=O)n1[C@@H]1CCC(=O)NC1=O [Compound K103] | 6.55 | – | pIC50 ([1]; Table 4 batch): 6.33
[2H][C@]1(n2c(C)nc3cc(F)cc(N)c3c2=O)CCC(=O)NC1=O [Compound K105] | 8.19 | – | pIC50 ([1]; Table 4 batch): 7.48
[2H][C@@]1(n2c(C)nc3cc(F)cc(N)c3c2=O)CCC(=O)NC1=O [Compound K106] | 6.11 | – | pIC50 ([1]; Table 4 batch): 6.30
Cc1nc2cc(C#N)cc(N)c2c(=O)n1C1CCC(=O)NC1=O (stereo not shown) [Compound K724] | 8.23 | – | –
Cc1nc2cc(F)cc(N)c2c(=O)n1C1CCC(=O)NC1=O (stereo not shown) [Compound K101] | 7.99 | – | pIC50 [2]: 8.17; pIC50 [3]: 6.75; pIC50 ([1]; Table 2 batch): 7.88; pIC50 (TNF-α; Table 1 experiment): 7.56; pIC50 [4]: 7.52; pIC50 [5]: 6.90
Cc1nc2cc(OCc3ccccc3)cc(N)c2c(=O)n1C1CCC(=O)NC1=O (stereo not shown) [Compound K704] | 6.33 | – | –
Cc1cc(N)c2c(=O)n(C3CCC(=O)NC3=O)c(C)nc2c1 (stereo not shown) [Compound K720] | 6.86 | – | –
Cc1nc2cc(O)cc(N)c2c(=O)n1C1CCC(=O)NC1=O (stereo not shown) [Compound K700] | – | 6.30 | –
Nc1cccc2c1CN(C1CCC(=O)NC1=O)C2=O (stereo not shown) [Compound B001] | 7.00 | – | pIC50 [2]: < 3.52; pIC50 [3]: < 3.52; pIC50 ([1]; Table 2 batch): 6.44; pIC50 (TNF-α; Table 1 experiment): 6.72; pIC50 [4]: 6.00; pIC50 [5]: < 3.52
Cc1nc2cc(F)cc(NC(=O)C(C)C)c2c(=O)n1C1CCC(=O)NC1=O (stereo not shown) [Compound K635] | – | 5.55 | –
Cc1nc2ccc(F)c(N)c2c(=O)n1C1CCC(=O)NC1=O (stereo not shown) [Reference 3, reference compound] | – | 5.93 | –
Cc1nc2cc(Cl)cc(N)c2c(=O)n1C1CCC(=O)NC1=O (stereo not shown) [Compound K401] | 7.99 | 7.66 | –
[2H]C1(n2c(C)nc3cc(F)cc(N)c3c2=O)CCC(=O)NC1=O (stereo not shown) [Compound K104] | – | – | pIC50 ([1]; Table 4 batch): 6.72
Cc1nc2cc(Br)cc(N)c2c(=O)n1C1CCC(=O)NC1=O (stereo not shown) [Compound K501] | 8.02 | 7.57 | –
Cc1nc2cc(F)ccc2c(=O)n1C1CCC(=O)NC1=O (stereo not shown) [Reference 1, reference compound] | 5.55 | 5.62 | –
CNc1cc(F)cc2nc(C)n(C3CCC(=O)NC3=O)c(=O)c12 (stereo not shown) [Compound K613] | 8.03 | – | –
Cc1nc2cc(OCc3ccc(CN4CCOCC4)cc3F)cc(N)c2c(=O)n1C1CCC(=O)NC1=O (stereo not shown) [Compound K706] | 6.50 | – | –
COc1cc(F)cc2nc(C)n(C3CCC(=O)NC3=O)c(=O)c12 (stereo not shown) [Compound K627] | – | 5.23 | –
Cc1nc2c(F)ccc(N)c2c(=O)n1C1CCC(=O)NC1=O (stereo not shown) [Reference 2, reference compound] | – | < 3.52 | –
Cc1nc2cc(F)cc(NC(C)C)c2c(=O)n1C1CCC(=O)NC1=O (stereo not shown) [Compound K617] | 6.82 | – | –
CC(=O)Nc1cc(F)cc2nc(C)n(C3CCC(=O)NC3=O)c(=O)c12 (stereo not shown) [Compound K633] | 6.41 | 6.50 | –
Cc1nc2cccc(N)c2c(=O)n1C1CCC(=O)NC1=O (stereo not shown) [Compound K001, reference compound] | 7.48 | 7.43 | pIC50 [2]: 7.18; pIC50 [3]: 6.33; pIC50 ([1]; Table 2 batch): 7.30; pIC50 ([1]; Table 4 batch): 6.56; pIC50 (TNF-α; Table 1 experiment): 7.49; pIC50 [4]: 7.06; pIC50 [5]: 6.34
